Tests used:
Assay type in all cases: cell-based, rat
[1] = tested on: primary hippocampal neurons; assay: Glutamate neurotoxicity, cell death (propidium iodide) after VLC-PUFA pretreatment; details: for IC50: Rattus norvegicus, Hippocampal neuron, 48 h pretreatment, L-glutamic acid 50 μM 60 min, assayed 24 h later, read-out: half-maximal inhibitory concentration (IC50), inhibition of cell death due to glutamate exposure; for concentrations at which cell death due to glutamate exposure was significantly inhibited: tested 0.1-30 μM, ANOVA/Tukey vs injured vehicle control, p<0.05
Experimental: (§1) Primary hippocampal neurons were harvested from embryonic day 17-18 rat fetuses using a modified version of previously described protocols (Banker and Cowan, 1977; Brewer et al., 1993) that preferentially select for neuronal growth over glial growth (Brewer, 1997). Pregnant dams were anesthetized via isoflurane on gestational day 18, and the rat fetuses were harvested by Cesarean section. Brains were removed and placed in ice-cold (4° C.) Hibernate EB (Brain Bits, Inc., Springfield, Il, USA) until all of the hippocampi were dissected. During the dissection, brain tissue was kept on an ice-cold block in Hibernate E solution. Dissected hippocampal tissue was washed once in room-temperature Hibernate E (without calcium, Brain Bits, Inc.) to remove divalent cations, and then incubated at 37° C. in a solution consisting of 0.17% trypsin in Hybernate E (without calcium) for 10 minutes. The tissue was subsequently washed once with ice-cold Hybernate E (without calcium) containing 15% fetal bovine serum (Atlas Biologicals, Fort Collins, Colo., USA) and then dissociated by trituration in the same media. Dispersed cell suspensions were centrifuged for 2 minutes at 200 g at 4° C., and resuspended in ice-cold Neurobasal medium (Invitrogen, Carlsbad, Calif., USA) supplemented with 1×B27 (Invitrogen), 100 μg/ml penicillin-streptomycin (Invitrogen), 0.5 mM L-glutamine (Invitrogen) and 0.025 mM L-glutamate (Sigma, St. Louis, Mo., USA). Viable cell number and concentration were determined by trypan blue exclusion and counted using an automated cell counter (Countess, Invitrogen). Cell suspensions were diluted in warm Neurobasal/B27 media and plated at a density of 30,000 cells per well in 96-well plates (Falcon Optilux plates, BD Biosciences, Bedford, Mass., USA) coated with laminin (Sigma) and poly-D-lysine (Sigma). Cultures were maintained in a temperature- (37° C.), humidity- (−100%), and gas- (5% CO2, 9% O2) controlled incubator. Half of the media was removed and replaced with fresh media every other day. All cultures were maintained for 3 days in vitro (DIV) in glutamate-containing media and then maintained an additional 7 DIV (glutamate neurotoxicity experiments) or 8 DIV (hypoxia) in Neurobasal/B27 media without glutamate.
(§2) Very long-chain polyunsaturated fatty acids (VLCPUFAs; 34:6n3, 34:5n3, 28:6n3, 28:5n3, and 28:4n6) were obtained as the free fatty acid and were stored at −20° C. until use. Each VLC-PUFA was dissolved in methanol to an initial concentration of 100 mM and then diluted serially in methanol to obtain 1000× stocks for each concentration tested. These were diluted further in media to obtain the appropriate concentration within the culture wells (final concentrations of 30 μM, 10 μM, 3 μM, 1 μM, 0.3 μM, and 0.1 μM). Controls received methanol similarly diluted in media (final concentration 0.1%). The VLC-PUFAs were added to the cultures 48 hours prior to glutamate insult or hypoxia exposure (described below), and a 50% media change occurred immediately prior to hypoxia exposure or immediately following glutamate exposure.
Cultures were treated with L-glutamic acid (50 μM, pH 7.0) for 60 minutes followed by a complete media change containing the appropriate concentrations of VLC-PUFAs. Cells were assayed for viability and mitochondrial health 24 hours after the glutamate treatment. […]

[2] = tested on: primary hippocampal neurons; assay: Mitochondrial health (TMRE) after glutamate-induced neurotoxicity; details: for EC50: Rattus norvegicus, Hippocampal neuron, 48 h pretreatment, L-glutamic acid 50 μM 60 min, assayed 24 h later, read-out: half-maximal effective concentration (EC50), increase of mitochondrial health after glutamate; for concentrations at which mitochondrial health after glutamate was significantly increased: tested 0.1-30 μM, ANOVA/Tukey vs injured vehicle control
Experimental: as §1, §2
Cultures were treated with L-glutamic acid (50 μM, pH 7.0) for 60 minutes followed by a complete media change containing the appropriate concentrations of VLC-PUFAs. Cells were assayed for viability and mitochondrial health 24 hours after the glutamate treatment.
Following glutamate exposure or hypoxia, cultures were aspirated with a 96-well plate washer (BioTek, Winooski, Vt., USA) and incubated for 15 minutes at 37° C. with phenol-free Neurobasal media (Invitrogen) containing one of two dye mixtures: 1) Hoechst dye (1:2000 of a 10 μg/ml solution, Invitrogen) and propidium iodide (PI; 1:500 of a 1 μg/ml solution; Invitrogen), or 2) Hoechst dye and tetramethylrhodamine ethyl ester (TMRE; 100 nM; Invitrogen). These dyes identify total cells (Hoechst), dying or dead cells (PI), and functional mitochondria (TMRE). […]

[3] = tested on: primary hippocampal neurons; assay: Hypoxia, cell death (propidium iodide) after VLC-PUFA pretreatment; details: 48 h hypoxia, O2 ≦0.3%, tested 0.1-30 μM
Experimental: as §1, with “All cultures were maintained for 3 days in vitro (DIV) in glutamate-containing media and then maintained an additional 7 DIV (glutamate neurotoxicity experiments) or 8 DIV (hypoxia) in Neurobasal/B27 media without glutamate.” left out

[4] = tested on: primary hippocampal neurons; assay: Mitochondrial health (TMRE) after hypoxia; details: 48 h hypoxia, O2 ≦0.3%; tested 0.1-30 μM
Experimental: Primary hippocampal neurons were harvested from embryonic day 17-18 rat fetuses using a modified version of previously described protocols (Banker and Cowan, 1977; Brewer et al., 1993) that preferentially select for neuronal growth over glial growth (Brewer, 1997). Pregnant dams were anesthetized via isoflurane on gestational day 18, and the rat fetuses were harvested by Cesarean section. Brains were removed and placed in ice-cold (4° C.) Hibernate EB (Brain Bits, Inc., Springfield, Il, USA) until all of the hippocampi were dissected. During the dissection, brain tissue was kept on an ice-cold block in Hibernate E solution. Dissected hippocampal tissue was washed once in room-temperature Hibernate E (without calcium, Brain Bits, Inc.) to remove divalent cations, and then incubated at 37° C. in a solution consisting of 0.17% trypsin in Hybernate E (without calcium) for 10 minutes. The tissue was subsequently washed once with ice-cold Hybernate E (without calcium) containing 15% fetal bovine serum (Atlas Biologicals, Fort Collins, Colo., USA) and then dissociated by trituration in the same media. […] Viable cell number and concentration were determined by trypan blue exclusion and counted using an automated cell counter (Countess, Invitrogen). […]

CC/C=C\C/C=C\C/C=C\C/C=C\C/C=C\C/C=C\CCCCCCCCC(=O)O [28:6n3]
IC50 [1]: 0.21 µM
concentrations at which cell death due to glutamate exposure was significantly inhibited [1]: ≥ 0.3 µM
EC50 [2]: 0.17 µM
concentrations at which mitochondrial health after glutamate was significantly increased [2]: ≥ 3.0 µM
effect on hypoxia-induced cell death (in words) [3]: did not inhibit hypoxia-induced cell death at any concentration tested

CC/C=C\C/C=C\C/C=C\C/C=C\C/C=C\CCCCCCCCCCCCCCCCCC(=O)O [34:5n3]
IC50 [1]: 0.69 µM
EC50 [2]: 0.68 µM
concentrations at which mitochondrial health after glutamate was significantly increased [2]: 3.0 µM
effect on hypoxia-induced cell death (in words) [3]: exhibited a main effect of treatment, but only one concentration (0.3 μM) approached a significant difference when compared to controls

CC/C=C\C/C=C\C/C=C\C/C=C\C/C=C\C/C=C\CCCCCCCCCCCCCCC(=O)O [34:6n3]
IC50 [1]: 1.07 µM
concentrations at which cell death due to glutamate exposure was significantly inhibited [1]: ≥ 3.0 µM
EC50 [2]: 0.25 µM
concentrations at which mitochondrial health after glutamate was significantly increased [2]: ≥ 0.3 µM
concentrations at which cell death due to hypoxia was significantly inhibited ([3]; 48 h pretreatment): 1.0 µM
effect on mitochondrial health after hypoxia (in words) [4]: did not significantly alter mitochondrial health at the concentrations tested

From US20130190399A1, “Synthesis and use of omega-3 and omega 6 very long chain polyunsaturated fatty acids (VLC-PUFA)” (MARTEK BIOSCIENCES CORPORATION, priority 2009, published 2013)
